Measured values reported in patent publication US6858638B2, “Substituted indazoles, compositions containing them, method of production and use” (Aventis Pharma S.A., priority 2002, dated 2005).
Structures can show the parent of a compound that is named as a salt.

Key:
human FAK = target: T1, human FAK (Homo sapiens, UniProt Q05397); assay: FAK autophosphorylation inhibition, time resolved fluorescence (HTRF) assay; format: biochemical; settings: for inhibition at 10 µM: 10 μM (values without asterisk), read-out: FAK % inhib at 10 μM
T1 construct: The complete cDNA of human FAK; made in house; host or cells: baculovirus expression system (vector pFastBac HTc)
T1 sequence (Q05397 whole entry): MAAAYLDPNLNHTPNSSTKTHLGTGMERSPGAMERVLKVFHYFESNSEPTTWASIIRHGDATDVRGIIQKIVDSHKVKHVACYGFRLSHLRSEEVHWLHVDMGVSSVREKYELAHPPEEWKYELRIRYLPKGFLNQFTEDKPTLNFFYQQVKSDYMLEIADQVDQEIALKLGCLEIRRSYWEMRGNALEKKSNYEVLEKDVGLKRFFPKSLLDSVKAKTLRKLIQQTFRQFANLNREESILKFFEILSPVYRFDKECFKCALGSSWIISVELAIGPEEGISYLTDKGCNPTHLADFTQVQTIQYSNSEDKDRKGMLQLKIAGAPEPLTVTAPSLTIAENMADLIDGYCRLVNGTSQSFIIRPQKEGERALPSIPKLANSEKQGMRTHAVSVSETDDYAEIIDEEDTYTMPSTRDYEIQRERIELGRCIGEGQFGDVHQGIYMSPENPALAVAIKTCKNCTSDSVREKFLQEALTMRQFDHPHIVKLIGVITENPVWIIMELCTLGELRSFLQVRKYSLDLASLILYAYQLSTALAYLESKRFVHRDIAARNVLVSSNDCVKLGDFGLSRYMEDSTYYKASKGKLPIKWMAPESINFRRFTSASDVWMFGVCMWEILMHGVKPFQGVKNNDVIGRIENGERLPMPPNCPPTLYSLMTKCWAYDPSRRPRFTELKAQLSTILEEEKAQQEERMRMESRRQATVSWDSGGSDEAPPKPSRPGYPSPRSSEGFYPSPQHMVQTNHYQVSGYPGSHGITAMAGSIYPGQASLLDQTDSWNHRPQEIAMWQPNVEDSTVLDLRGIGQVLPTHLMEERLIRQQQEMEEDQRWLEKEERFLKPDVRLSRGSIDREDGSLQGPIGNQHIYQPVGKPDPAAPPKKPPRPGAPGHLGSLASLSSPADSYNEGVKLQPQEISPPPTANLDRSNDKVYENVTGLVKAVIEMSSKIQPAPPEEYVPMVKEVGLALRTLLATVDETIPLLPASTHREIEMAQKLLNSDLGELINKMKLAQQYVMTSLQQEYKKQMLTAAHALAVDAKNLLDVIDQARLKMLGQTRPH
Outline: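 His-tagged full-length human FAK from baculovirus (6.6 µg/ml) self-phosphorylates with 15 µM ATP in HEPES pH 7.2, MgCl2, vanadate, 1 h at 37 °C. HTRF detection (Eu-anti-phosphotyrosine / XL665-anti-His), 665/620 nm ratio; % inhibition vs untreated control, duplicate mean.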

Aurora2 kinase = target: T2, Aurora2 kinase (Homo sapiens, UniProt O14965); assay: Aurora2 kinase radioactivity scintillation assay using nickel chelate (NuMA substrate); format: biochemical; settings: 10 μM; read-out: Aurora2 % inhib at 10 μM
T2 construct: A complete recombinant Aurora2 enzyme; His tag (N); made in house; host or cells: E. coli
T2 sequence (O14965 1-403): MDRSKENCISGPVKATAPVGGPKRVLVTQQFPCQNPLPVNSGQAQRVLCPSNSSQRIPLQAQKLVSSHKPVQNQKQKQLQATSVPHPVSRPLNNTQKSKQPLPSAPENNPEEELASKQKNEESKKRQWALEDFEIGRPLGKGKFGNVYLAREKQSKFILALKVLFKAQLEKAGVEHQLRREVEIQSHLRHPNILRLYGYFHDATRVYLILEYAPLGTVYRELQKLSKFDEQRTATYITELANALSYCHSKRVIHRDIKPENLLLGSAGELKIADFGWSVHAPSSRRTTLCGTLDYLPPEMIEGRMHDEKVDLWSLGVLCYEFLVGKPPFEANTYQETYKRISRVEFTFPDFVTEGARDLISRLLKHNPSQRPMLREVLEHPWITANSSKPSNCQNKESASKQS
Outline: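 His-tagged full-length Aurora2 (0.02 μM, E. coli) phosphorylating His-tagged NuMA C-terminal fragment (0.5 μM) with 1 μM ATP plus [33P]-ATP, 30 min at 37 °C, pH 7.5 Tris buffer with MgCl2. Nickel-chelate scintillation read; percent inhibition versus no-compound control.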

human KDR enzyme = target: T3, human KDR enzyme (Homo sapiens, UniProt P35968); assay: KDR substrate (PLCγ) phosphorylation, scintillation assay; format: biochemical; settings: 10 μM; read-out: KDR % inhib at 10 μM
T3 construct: The cytoplasmic domain of the human KDR enzyme; GST; made in house; host or cells: SF21 insect cells (baculovirus)
T3 sequence (P35968 786-1356 limits assumed): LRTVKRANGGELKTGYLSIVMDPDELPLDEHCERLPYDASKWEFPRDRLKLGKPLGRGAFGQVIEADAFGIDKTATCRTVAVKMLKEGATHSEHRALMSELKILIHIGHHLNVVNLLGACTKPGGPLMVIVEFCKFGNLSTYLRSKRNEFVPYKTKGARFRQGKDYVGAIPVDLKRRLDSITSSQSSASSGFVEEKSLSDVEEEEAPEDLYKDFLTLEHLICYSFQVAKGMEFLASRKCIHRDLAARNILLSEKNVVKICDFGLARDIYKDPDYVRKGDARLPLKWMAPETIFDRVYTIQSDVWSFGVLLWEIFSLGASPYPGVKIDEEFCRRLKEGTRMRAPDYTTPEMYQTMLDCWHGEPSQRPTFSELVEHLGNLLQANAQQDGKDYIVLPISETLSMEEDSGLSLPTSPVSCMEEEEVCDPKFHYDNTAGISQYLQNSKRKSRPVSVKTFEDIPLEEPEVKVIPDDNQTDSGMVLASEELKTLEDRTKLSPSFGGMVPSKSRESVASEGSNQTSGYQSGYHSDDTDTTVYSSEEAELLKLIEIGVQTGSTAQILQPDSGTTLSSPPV
Outline: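 GST-fused human KDR cytoplasmic domain from SF21 cells (about 60% pure, 100 ng) phosphorylated 2 μg of GST-PLCγ SH2-SH3 fragment. The trigger solution held γ33P-ATP with 2 μM cold ATP, in MOPS buffer pH 7.2 with Mg2+, Mn2+, vanadate and NaF. Reactions ran 1 h at 37 °C, were stopped with EDTA and counted by scintillation; results are % inhibition versus the no-compound control.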

[1] = target: T4, human IGF1R cytoplasmic domain (Homo sapiens, UniProt P08069); assay: IGF1R autophosphorylation inhibition, time resolved fluorescence (HTRF) assay; format: biochemical; settings: 10 μM; read-out: IGF1R % inhib at 10 μM
T4 construct: The human IGF1R cytoplasmic domain was cloned; made in house; host or cells: SF21 insect cells (baculovirus)
T4 sequence (P08069 960-1367 limits assumed): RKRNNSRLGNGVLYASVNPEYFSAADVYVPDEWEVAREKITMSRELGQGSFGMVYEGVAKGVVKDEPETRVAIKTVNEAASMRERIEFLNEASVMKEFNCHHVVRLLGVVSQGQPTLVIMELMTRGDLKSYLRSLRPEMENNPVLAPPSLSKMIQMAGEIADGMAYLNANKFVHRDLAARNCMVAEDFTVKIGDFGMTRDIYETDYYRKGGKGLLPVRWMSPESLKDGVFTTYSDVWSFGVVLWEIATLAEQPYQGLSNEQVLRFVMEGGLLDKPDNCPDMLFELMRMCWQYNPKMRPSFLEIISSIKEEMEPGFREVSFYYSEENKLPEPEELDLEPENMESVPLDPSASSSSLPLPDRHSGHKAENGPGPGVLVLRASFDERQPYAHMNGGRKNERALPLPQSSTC
Outline: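 GST-tagged human IGF1R cytoplasmic domain from SF21 cells incubated with compound in 50 mM Hepes pH 7.5, 5 mM MnCl2, 50 mM NaCl, […] ATP. Autophosphorylation detected by HTRF (Eu-K anti-phosphotyrosine, XL665 anti-GST) after EDTA/KF stop; percentage inhibition versus no-compound control.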

| Structure (SMILES) | melting point | inhibition at 10 µM (human FAK) | inhibition at 10 µM (Aurora2 kinase) | inhibition at 30 µM (human FAK; 30 μM (values marked *), read-out: FAK % inhib at 30* μM) | inhibition at 10 µM (human KDR enzyme) | inhibition at 10 µM [1] |
| --- | --- | --- | --- | --- | --- | --- |
| CS(=O)(=O)c1ccccc1S(=O)(=O)Nc1ccc2[nH]nc(-c3ccc(C(=O)O)cc3)c2c1 (hydrate or solvate) [Example 69, 4-[5-(2-Methylsulfonylbenzenesulfonamino)-1H-indazol-3-yl]benzoic acid] | 199 °C |  |  |  |  |  |
| O=S(=O)(Oc1ccc2[nH]ncc2c1)c1cccc(F)c1 (as salt: benzenesulfonate) [Example 17, 1H-Indazol-5-yl 3-fluorobenzenesulfonate] | 104 °C |  |  |  |  |  |
| CC(=O)Nc1ccccc1-c1n[nH]c2ccc(NS(=O)(=O)c3cccc(F)c3)cc12 (hydrate or solvate) [Example 47, N-{2-[5-(3-Fluorobenzenesulfonylamino)-1H-indazol-3-yl]phenyl}acetamide] | 135 °C |  |  |  |  |  |
| CS(=O)(=O)Nc1n[nH]c2ccc(NS(=O)(=O)c3cccc(F)c3)cc12 (hydrate or solvate) [Example 27, 3-Fluoro-N-(3-methylsulfonylamino-1H-indazol-5-yl)benzenesulfonamide] | 230 °C |  |  |  |  |  |
| O=S(=O)(Nc1ccc2[nH]ncc2c1)c1ccc(Cl)c(Cl)c1 [Example 14, 3,4-Dichloro-N-(1H-indazol-5-yl)benzenesulfonamide] | 209 °C | 42% |  |  |  |  |
| CC(=O)Nc1n[nH]c2ccc(NS(=O)(=O)c3cccc(F)c3)cc12 (hydrate or solvate) [Example 28, N-[5-(3-Fluorobenzenesulfonylamino)-1H-indazol-3-yl)acetamide] | 246 °C |  |  |  |  |  |
| O=C(Nc1n[nH]c2ccc(NS(=O)(=O)c3cc(F)cc(F)c3)cc12)c1ccccc1 (hydrate or solvate) [Example 46, N-[5-(3,5-Difluorobenzenesulfonylamino)-1H-indazol-3-yl]benzamide] | 246 °C |  |  |  |  |  |
| CS(=O)(=O)c1ccccc1S(=O)(=O)Nc1ccc2[nH]nc(C#N)c2c1 (hydrate or solvate) [Example 5, N-(3-Cyano-1H-indazol-5-yl)-2-methylsulfonylbenzenesulfonamide] | 272 °C |  |  |  |  |  |
| CS(=O)(=O)c1ccccc1S(=O)(=O)Nc1ccc2[nH]nc(-c3ccc(Cl)cc3Cl)c2c1 [Example 163, N-[3-(2,4-Dichlorophenyl)-1H-indazol-5-yl]-2-methanesulfonyl-benzenesulfonamide] |  | 61% | 64% |  | 61% | 23% |
| CS(=O)(=O)c1ccccc1S(=O)(=O)Nc1ccc2[nH]nc(-c3ccc(F)cc3F)c2c1 [Example 217, N-[3-(2,4-Difluorophenyl)-1H-indazol-5-yl]-2-methanesulfonyl-benzenesulfonamide] |  | 95% | 92% |  | 70% | 83% |
| O=C(Nc1n[nH]c2ccc(NS(=O)(=O)c3cc(F)cc(F)c3)cc12)c1ccccc1 [Example 46, N-[5-(3,5-Difluorobenzenesulfonylamino)-1H-indazol-3-yl]benzamide] |  | 90% | 95% |  | 82% | 82% |
| Cc1cc(C)c(S(=O)(=O)Nc2ccc3[nH]nc(-c4ccccc4)c3c2)c(C)c1 [Example 115, 2,4,6-Trimethyl-N-(3-phenyl-1H-indazol-5-yl)-benzenesulfonamide] |  | 31% | 70% |  | 78% | 79% |
| CS(=O)(=O)c1ccccc1S(=O)(=O)Nc1ccc2[nH]nc(/C=C/c3ccccc3)c2c1 [Example 78, 2-Methylsulfonyl-N-[3-((E)-styryl)-1H-indazol-5-yl]benzenesulfonamide] |  | 94% | 100% |  | 97% | 96% |
| CS(=O)(=O)c1ccccc1S(=O)(=O)Nc1ccc2[nH]nc(-c3cccc(F)c3F)c2c1 [Example 221, N-[3-(2,3-Difluorophenyl)-1H-indazol-5-yl]-2-methanesulfonyl-benzenesulfonamide] |  | 94% | 84% |  | 60% | 50% |
| CS(=O)(=O)c1ccccc1S(=O)(=O)Nc1ccc2[nH]nc(-c3ccc(CO)cc3)c2c1 [Example 191, N-[3-(4-Hydroxymethylphenyl)-1H-indazol-5-yl]-2-methanesulfonyl-benzenesulfonamide] |  | 96% | 88% |  | 45% | 73% |
| CS(=O)(=O)c1ccccc1S(=O)(=O)Nc1ccc2[nH]nc(-c3cccc(Cl)c3)c2c1 [Example 177, N-[3-(3-Chlorophenyl)-1H-indazol-5-yl]-2-methanesulfonyl-benzenesulfonamide] |  | 97% | 95% |  | 71% | 80% |
| O=[N+]([O-])c1ccc(S(=O)(=O)Nc2ccc3[nH]nc(-c4ccccc4)c3c2)cc1 [Example 119, 4-Nitro-N-(3-phenyl-1H-indazol-5-yl)benzenesulfonamide] |  | 25% | 50% |  | 78% | 50% |

Other lines, results leading:

| melting point | inhibition at 10 µM (human FAK) | inhibition at 10 µM (Aurora2 kinase) | inhibition at 30 µM (human FAK; 30 μM (values marked *), read-out: FAK % inhib at 30* μM) | inhibition at 10 µM (human KDR enzyme) | inhibition at 10 µM [1] | Structure (SMILES) |
| --- | --- | --- | --- | --- | --- | --- |
| 225 °C | 93% | 99% |  |  |  | O=C(Nc1n[nH]c2ccc(NS(=O)(=O)c3cccc(F)c3)cc12)c1ccccc1 [Example 23, N-[5-(3-Fluorobenzenesulfonylamino)-1H-indazol-3-yl]benzamide] |
| 227 °C |  |  | 85% | 24% |  | N#Cc1n[nH]c2ccc(NS(=O)(=O)c3cccc(F)c3)cc12 [Example 4, N-(3-Cyano-1H-indazol-5-yl)-3-fluorobenzenesulfonamide] |
|  | 40% | 100% |  | 85% | 74% | O=S(=O)(Nc1ccc2[nH]nc(-c3ccccc3)c2c1)c1ccccc1OC(F)(F)F [Example 142, N-(3-Phenyl-1H-indazol-5-yl)-2-trifluoromethoxy-benzenesulfonamide] |
|  | 98% | 99% |  | 73% | 61% | CS(=O)(=O)c1ccccc1S(=O)(=O)Nc1ccc2[nH]nc(-c3ccc(C(=O)O)cc3)c2c1 [Example 69, 4-[5-(2-Methylsulfonylbenzenesulfonamino)-1H-indazol-3-yl]benzoic acid] |
|  | 90% | 96% |  | 77% | 74% | CS(=O)(=O)c1ccccc1S(=O)(=O)Nc1ccc2[nH]nc(-c3cc(F)cc(F)c3)c2c1 [Example 102, N-[3-(3,5-difluorophenyl)-1H-indazol-5-yl]-2-methylsulfonylbenzenesulfonamide] |
|  | 98% | 98% |  | 66% | 76% | COc1ccc(-c2n[nH]c3ccc(NS(=O)(=O)c4ccccc4S(C)(=O)=O)cc23)cc1OC [Example 198, 2-Methanesulfonyl-N-[3-(3,4-dimethoxyphenyl)-1H-indazol-5-yl]benzenesulfonamide] |
|  | 82% | 90% |  | 37% | 50% | COc1ccccc1-c1n[nH]c2ccc(NS(=O)(=O)c3ccccc3S(C)(=O)=O)cc12 [Example 183, 2-Methanesulfonyl-N-[3-(2-methoxyphenyl)-1H-indazol-5-yl]benzenesulfonamide] |
|  | 5% | 61% |  | 61% | 50% | CS(=O)(=O)c1ccc(S(=O)(=O)Nc2ccc3[nH]nc(-c4ccccc4)c3c2)cc1 [Example 155, 4-Methanesulfonyl-N-(3-phenyl-1H-indazol-5-yl)-benzenesulfonamide] |
